Data taken from article PMC11077991, “The small molecule CBR-5884 inhibits the Candida albicans phosphatidylserine synthase” (mBio, 2024).

Tests used:
[1] = system: C. albicans strains GDH2346, 3153A, TFPY412 and TFPY2307; assay: CLSI MIC broth microdilution, additional wild-type strains; type: cell-based, Candida albicans; settings: RPMI MOPS pH 7.0, 37°C, 48 h
Experimental: Furthermore, there are no current reports on the antifungal effects of LOC14 and CBR-5884. To rule out the possibility that their inhibition is strain-specific, we treated four additional C. albicans wildtype strains—GDH2346 ([54]), 3153A ([55]), and two clinical isolates TFPY412 and TFPY2307—with LOC14 and CBR-5884. Tests were done in RPMI MOPS (pH 7.0) medium at 37°C for 48 h following the CLSI MIC broth microdilution protocol, and a cho1ΔΔ strain was included as a control (Fig. 3E and F).
Minimum inhibitory concentration (MIC) was determined following Clinical & Lab Standards Institute (CLSI) MIC broth microdilution protocol (Licensed to Todd Reynolds, license # Ord-1138682) ([98], [99]). Briefly, stock solutions of different compounds (purchased from MedChemExpress) were prepared at a concentration of 10 mM in DMSO and subsequently diluted as required in the same solvent. Wild-type C. albicans strain SC5314, as well as four additional wild-type strains—GDH2346, 3153A, TFPY412, and TFPY2307, were cultured overnight in YPD medium at 30°C, washed with water three times, and then diluted to a concentration of 2 × 10^3 cells/mL (OD600 = 0.00008) in one of the three media [minimal medium, minimal medium buffered with 50 mM HEPES (pH 7.0) and RPMI MOPS (pH 7.0)]. The cho1ΔΔ strain was also included as a control. […]

[2] = type: physicochemical; settings: 12 h, 170 µM
Experimental: However, it was observed that the impact of CBR-5884 on cell growth was only temporary, with a delay lasting 12 h. […] To disentangle these two possibilities, experiments were conducted where both CBR-5884 and DMSO were subjected to 12 h of agitation at 30°C before being introduced to live cells. The growth of these cells was monitored over the next 14 h, with an OD600 measurement every 2 h, to assess the persistence of CBR-5884’s efficacy (Fig. 4F); in the meantime, cells that had been grown in 170 µM CBR-5884 for 12 and 24 h were transferred into fresh media containing new CBR-5884, which was allowed to grow for another 14 h, to probe the rising of resistance (Fig. 4G). In both experimental setups, cells grew slowly in the presence of CBR-5884 compound compared to DMSO control.
The growth curves with LOC14 and CBR-5884 treatments were measured from 2 to 30 h with OD600 measurements every 2 h. A final concentration of 170 µM CBR-5884, 430 µM LOC14, and 5 mM serine was added into each group as indicated. To test the stability of CBR-5884, minimal medium supplemented with 170 µM CBR-5884 or equivalent DMSO was agitated for 12 h before the introduction of wildtype C. albicans SC5314 strain, and growth curves were recorded from 0 to 14 h with OD600 measurement every 2 h. […] The growth curves were recorded from 0 to 14 h with OD600 measurement every 2 h. […]

[3] = system: in vivo PS production in wild-type C. albicans; assay: metabolic labeling of PS using probe C-L-SerN3; type: cell-based, Candida albicans; settings: 170 µM CBR-5884, 1.5 mM probe
Experimental: The C-L-SerN3 probe [(S)-1-((3-azidopropyl)amino)-3-hydroxy-1-oxopropan-2-aminium chloride] was synthesized as described in reference ([59]). Cells grown overnight in YPD were washed three times in H2O and inoculated into minimal media at a starting OD600 of 0.05. Cells were shaken for 5 h before 1.5 mM C-L-SerN3 probe was added, along with 170 µM CBR-5884 or an equivalent volume of DMSO. Cells were then incubated for another 5 h before being washed three times with H2O, and 5% BSA in 1× PBS was used to treat cells for 20 min. The cells were then washed three times with 1× PBS and then resuspended to OD600 of 0.6 in 1 mL PBS + 1 µM AZDye 488 DBCO (Click chemistry tools, cat# 1278-1). Cells were covered with aluminum foil and rocked for 1 h, and the dye was removed by pelleting the cells at 5,000 × g followed by washing with shaking at 1,000 rpm three times in 1× PBS, and resuspended in 200 µL Fluoromount-G mounting medium (cat# 00-4958-02). For each treatment, 10 µL of cells was added to a glass slide and 3 µL fresh Fluoromount-G mounting medium was used to mix the sample. […] The samples were excited using light at a wavelength of 488 nm, and the resulting fluorescence was captured within the range of 498–550 nm using a HyD detector. […] A total of 40 cells from at least 10 images were used for the quantification in ImageJ software.

[4] = system: purified Cho1; assay: CBR-5884 washout assay (radioactive PS synthase assay); type: biochemical, Candida albicans; settings: 100 µM preincubated 2 h, buffer exchange
Experimental: For CBR-5884 washout assays, purified Cho1 was incubated with CBR-5884 at a final concentration of 100 µM, or equivalent DMSO, in 100 µL volume on ice for 2 h. The CBR-5884 was then washed out by exchanging with 4 mL 50 mM Tris-HCl at pH 8.0 and 0.1% digitonin three times in the Amicon Ultra Centrifugal Filter (10 kDa MWCO). The sample was concentrated to the volume of approximately 500 µL, and protein concentration was determined using the Pierce detergent-compatible Bradford assay kit. The reaction was set up with 50 mM Tris-HCl (pH 8.0), 1 mM MnCl2, 0.1% Triton X-100, 0.1% digitonin, 0.1 mM (4.7 mol %), 16:0 CDP-DAG (Avanti, cat# 870510), and 10 mM L-serine [spiked with 5% (by volume) L-[3H]-serine (15 Ci/mmol)] at a total volume of 100 µL, in the presence of 100 µM CBR-5884 or equivalent DMSO solvent. The reaction was stopped at 20, 40, and 60 min, and specific activity was calculated based on the slope of linear PS production, representing the initial velocity.

SMILES	growth inhibition of four additional wild-type strains [1]	stability and effectiveness under agitation [2]	C-L-SerN3 fluorescence on the periphery of the cell [3]	inhibition after preincubation and washout [4]
O=C(C1CC1)N1CCN(Cn2sc3ccccc3c2=O)CC1 [LOC14]	all strains were inhibited			
CCOC(=O)c1sc(NC(=O)c2ccco2)c(SC#N)c1C [CBR-5884]	all strains were inhibited	at least 12 h	significantly diminished	absence of inhibition
